Measured values: US8877707B2, “Inhibitors of HCV NS5A” (Presidio Pharmaceuticals, Inc., priority 2010, dated 2014)
Where two headings read alike, the source gives them in different places.

System: HCV genotype 1b replicon in Huh 7 cells
Assay: HCV replicon assay (1b_Huh-Luc/Neo-ET cell line, luciferase readout)
Type: cell-based
Settings: Hepatitis C virus, read-out: Inhibition of HCV genotype 1b
Protocol: Biological activity of the compounds of the invention was determined using an HCV replicon assay. The 1b_Huh-Luc/Neo-ET cell line persistently expressing a bicistronic genotype 1b replicon in Huh 7 cells was obtained from ReBLikon GMBH. This cell line was used to test compound inhibition using luciferase enzyme activity readout as a measurement of compound inhibition of replicon levels.
On Day 1 (the day after plating), each compound is added in triplicate to the cells. Plates incubated for 72 h prior to running the luciferase assay. Enzyme activity was measured using a Bright-Glo Kit (cat. number E2620) manufactured by Promega Corporation. The following equation was used to generate a percent control value for each compound. % Control=(Average Compound Value/Average Control)*100
The EC50 value was determined using GraphPad Prism and the following equation: Y=Bottom+(Top−Bottom)/(1+10^((Log IC50−X)*HillSlope))
EC50 values of compounds are repeated several times in the replicon assay.

[1] = Table 1, genotype 1b replicon, Huh 7 cells, 72 h, luciferase
[2] = Table 2, genotype 1b replicon, Huh 7 cells, 72 h, luciferase

For `COC(=O)N[C@H](C(=O)N1CCC[C@H]1c1nc2ccc(-c3ccc4cc(-c5cnc([C@@H]6CCCN6C(=O)[C@@H](NC(=O)OC)C6CCOCC6)[nH]5)ccc4c3)cc2[nH]1)C(C)C` [compound 190], the EC50 [1] was < 1 nM.

With `COC(=O)N[C@H](C(=O)N1CCC[C@H]1c1ncc(-c2ccc(-c3ccc4cc(-c5cnc([C@@H]6CSCCN6C(=O)[C@@H](NC(=O)OC)C(C)C)[nH]5)ccc4c3)cc2)[nH]1)C(C)C` [compound 308] the EC50 [2] was < 1 nM.

For `COC(=O)N[C@H](C(=O)N1CCC[C@H]1c1ncc(-c2ccc3cc(-c4ccc5nc([C@@H]6CCCN6C(=O)[C@@H](NC(=O)OC)C(C)C)[nH]c5c4)ccc3n2)[nH]1)C(C)C` [compound 209], the EC50 [1] was < 1 nM.

`COC(=O)N[C@H](C(=O)N1CCC[C@H]1c1ncc(-c2ccc(-c3ccc4cc(-c5c[nH]c([C@@H]6CCCN6C(=O)[C@@H](c6ccccc6)N6CCCC6)n5)ccc4c3)cc2)[nH]1)C(C)C` [compound 9] was tested, and the EC50 [1] was < 1 nM.

With `COC(=O)N[C@H](C(=O)N1CCC[C@H]1c1nc2ccc3cc(-c4ccc5cc(-c6cnc([C@@H]7CCCN7C(=O)[C@@H](NC(=O)OC)C7CCOCC7)[nH]6)ccc5n4)ccc3c2[nH]1)C(C)C` [compound 297] the EC50 [1] was < 1 nM.

`COC(=O)N[C@H](C(=O)N1CCC[C@H]1C(=O)N[C@H](C)c1ccc(-c2ccc3cc(-c4cnc([C@@H]5CCCN5C(=O)[C@@H](NC(=O)OC)[C@@H](C)OC)[nH]4)ccc3c2)cc1)[C@@H](C)OC` [compound 562] gave an EC50 (Huh-7, HCV 1b replicon) of 10 to 999 nM.

In the case of `COC(=O)N[C@H](C(=O)N1CCC[C@H]1C(=O)Nc1ccc(-c2ccc3cc(-c4cnc([C@@H]5CCCN5C(=O)[C@@H](NC(=O)OC)C(C)C)[nH]4)ccc3n2)cc1)C(C)C` [compound 541], the EC50 (Huh-7, HCV 1b replicon) is reported as 1 to 9.9 nM.

For `COC(=O)N[C@H](C(=O)N1CCC[C@H]1c1nc(-c2ccc3nc(-c4ccc(-c5cnc([C@@H]6CCCN6C(=O)[C@@H](NC(=O)OC)[C@@H](C)OC)[nH]5)cc4)ccc3c2)c[nH]1)C(C)C` [compound 43], the EC50 [1] was < 1 nM.

In the case of `COC(=O)N[C@H](C(=O)N1CCC[C@H]1c1ncc(-c2ccc(-c3ccc4cc(-c5cnc([C@@H]6CCCN6C(=O)[C@@H](NC(=O)OC)C(C)C)[nH]5)ccc4c3)c(C#N)c2)[nH]1)C(C)C` [compound 309], the EC50 [2] is reported as < 1 nM.

Compound `COC(=O)N[C@H](C(=O)N1CCC[C@H]1C(=O)NCc1ccc(-c2ccc3cc(-c4cnc([C@@H]5CCCN5C(=O)[C@@H](NC(=O)OC)C(C)C)[nH]4)ccc3n2)cc1)C(C)C` [compound 546] has an EC50 (Huh-7, HCV 1b replicon) of 10 to 999 nM.

`COC(=O)N[C@@H](C)C(=O)N1CCC[C@H]1c1ncc(-c2ccc3cc(-c4ccc(-c5cnc([C@@H]6CCCN6C(=O)[C@H](NC(=O)OC)c6ccccc6)[nH]5)cc4)ccc3c2)[nH]1` [compound 319] was tested, and the EC50 [2] was < 1 nM.

In the case of `COC(=O)N[C@H](C(=O)N1CCC[C@H]1c1ncc(-c2ccc3cc(-c4ccc5nc([C@@H]6CCCN6C(=O)[C@@H](NC(=O)OC)C6CCCCC6)[nH]c5c4)ncc3c2)[nH]1)C1CCCCC1` [compound 379], the EC50 [2] is reported as < 1 nM.

For `C=CC[C@H](NC(=O)OC)C(=O)N1CCC[C@H]1c1ncc(-c2ccc3nc(-c4ccc(-c5cnc([C@@H]6CCCN6C(=O)[C@@H](NC(=O)OC)C(C)C)[nH]5)cc4F)ccc3c2)[nH]1` [compound 159], the EC50 [1] was < 1 nM.

In the case of `COC(=O)N[C@H](C(=O)N1CCC[C@H]1c1nc(-c2cnc3cc(-c4ccc(-c5cnc([C@@H]6CCCN6C(=O)[C@@H](NC(=O)OC)C(C)C)[nH]5)cn4)ccc3c2)c[nH]1)C(C)C` [compound 74], the EC50 [1] is reported as < 1 nM.

With `COC(=O)N[C@H](C(=O)N1CCCC[C@H]1c1ncc(-c2ccc(-c3ccc4cc(-c5cnc([C@@H]6CCCN6C(=O)[C@@H](NC(=O)OC)C(C)C)[nH]5)ccc4n3)cc2)[nH]1)C(C)C` [compound 455] the EC50 (Huh-7, HCV 1b replicon) was < 1 nM.

In the case of `COC(=O)N[C@@H](C(=O)N1CCC[C@H]1c1ncc(-c2ccc(-c3nc4ccc(-c5cnc([C@@H]6CCCN6C(=O)[C@H](NC(=O)OC)c6ccccc6)[nH]5)cc4o3)cc2)[nH]1)c1ccccc1` [compound 235], the EC50 [1] is reported as < 1 nM.

With `COC(=O)N[C@H](C(=O)N1CCC[C@H]1c1ncc(-c2ccc(-c3ccc4cc(-c5cnc([C@@H]6COCCN6C(=O)[C@H](NC(=O)OC)c6ccccc6)[nH]5)ccc4c3)cc2)[nH]1)C(C)C` [compound 132] the EC50 [1] was < 1 nM.
